Measured values taken from article PMC5917010, “Structural basis for GPR40 allosteric agonism and incretin stimulation” (Nature Communications, 2018).
Values joined by “and” are separate entries in the source; they are usually repeats but may differ in a detail not shown here. Equal values may be shown once. Read-outs that look alike come from different tables or passages of the source.

Columns and labels:
human GPR40 = target: T1, human GPR40 (Homo sapiens, UniProt O14842); test: Ca2+ mobilization assay (FLIPR), HEK293 cells stably overexpressing GPR40; assay type: cell-based; conditions: for Ca2+ mobilization (FLIPR) Top: relative to 500 µM linoleic acid; for agonist type in Ca2+ mobilization assay: relative to 500 µM of the natural ligand, linoleic acid
T1 construct: HEK293 cells stably overexpressing full length human GPR40; expressed in transfected cells
Method: HEK293 cells stably overexpressing full length human GPR40 were plated (50K cells/well) into 96-well microtiter plates using Dulbecco’s Modified Eagle’s Medium (DMEM) supplemented with 10% certified fetal bovine serum (FBS), 20 mM HEPES, pH 7.4, 1 mM Sodium Pyruvate, 100 U/mL Penicillin, 100 µg/mL Streptomycin, and 800 µg/mL Geneticin. The cells were incubated overnight at 37 °C and 5% CO2. Calcium 4 dye (Molecular Devices) diluted in assay buffer was added (100 µL per well) to the cell plates, followed by a 1 h incubation in the dark at 25 °C. Test compounds were serially diluted three-fold in 100% DMSO and immediately diluted in assay buffer. […] Receptor activation was immediately measured as an increase in intracellular calcium using the FLIPR® over 3 min. To determine agonist responses, relative fluorescence units (RFUs) over 60 reads were calculated per well and used to calculate percent stimulation relative to 500 µM of the natural ligand, linoleic acid, response. EC50 values were calculated by plotting test compound concentration vs. percent stimulation using a 4-parameter logistic curve fitting equation.

Rat GPR40 = Rat GPR40 (Rattus norvegicus, UniProt Q8K3T4); test: Rat GPR40 b-arrestin; assay type: cell-based
Mouse GPR40 = Mouse GPR40 (Mus musculus, UniProt Q76JU9); test: Mouse GPR40 b-arrestin; assay type: cell-based
Human GPR120 = target: T2, Human GPR120 (Homo sapiens, UniProt Q5NUL3); test: Human GPR120 b-arrestin; assay type: cell-based; conditions: Supplementary Table 1
T2 sequence (Q5NUL3 1-361): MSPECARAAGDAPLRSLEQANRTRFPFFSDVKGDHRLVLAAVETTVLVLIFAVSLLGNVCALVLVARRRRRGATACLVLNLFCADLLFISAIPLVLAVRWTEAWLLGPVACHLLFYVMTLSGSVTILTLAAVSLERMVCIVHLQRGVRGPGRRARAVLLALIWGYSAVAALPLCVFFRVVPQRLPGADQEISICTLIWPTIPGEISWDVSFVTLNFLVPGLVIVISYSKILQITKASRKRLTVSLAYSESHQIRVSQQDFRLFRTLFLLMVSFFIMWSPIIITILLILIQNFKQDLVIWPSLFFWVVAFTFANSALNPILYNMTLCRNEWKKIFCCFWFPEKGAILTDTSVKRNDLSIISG

wild type C57BL/6 mice = test: Oral glucose tolerance test (OGTT) in wild type C57BL/6 mice; assay type: in vivo, mouse
Method: Eight to thirteen week old male C57BL/6 or KO mice were used. The day before the study, at 1600 hours, animals were transferred into clean cages and food was removed. The following morning (~0800 hours), mice were randomized by block randomization to treatment groups (N = 5–7 per group) so each group had similar mean and standard deviation of body weight and blood glucose. […] Animals were dosed with vehicle (0.5% MC/0.25% Tween-80) or the test article by oral gavage. Group allocations were not blinded from the experimenters who collected the data. After 60 min compound treatment animals were then given an oral gavage of glucose (2 g/kg). At 0, 15, 30, 60, and 120 min post oral glucose, two glucose readings via glucometers were obtained. The average of two glucose readings was reported at each time point. Data were expressed as mean±standard error (s.e.m.). Blood glucose values were analyzed using ANOVA with repeated measures. Cook’s distance was also calculated from linear regression. All animals were included in the analysis with their individual averaged Cook’s distance < 1. Dunnett’s comparison was performed at each time point by R program. Significance is denoted at p < 0.05.

human PPARdelta = target: T3, human PPARdelta (Homo sapiens, UniProt Q03181); test: human PPARdelta binding; conditions: Supplementary Table 1
T3 sequence (Q03181 1-441): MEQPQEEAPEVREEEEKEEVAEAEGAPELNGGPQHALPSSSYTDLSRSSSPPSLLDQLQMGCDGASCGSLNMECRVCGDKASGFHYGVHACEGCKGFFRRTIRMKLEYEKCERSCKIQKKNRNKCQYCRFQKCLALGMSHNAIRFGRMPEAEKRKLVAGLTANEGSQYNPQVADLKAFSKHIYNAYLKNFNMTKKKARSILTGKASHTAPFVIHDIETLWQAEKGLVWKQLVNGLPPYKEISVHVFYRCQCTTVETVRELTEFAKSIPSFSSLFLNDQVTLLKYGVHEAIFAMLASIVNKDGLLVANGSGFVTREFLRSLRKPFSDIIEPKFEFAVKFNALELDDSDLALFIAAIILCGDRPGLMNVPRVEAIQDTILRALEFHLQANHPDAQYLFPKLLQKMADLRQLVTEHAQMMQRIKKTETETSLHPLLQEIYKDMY

human GPR40 (A2 site) = target: T4, human GPR40 (A2 site) (Homo sapiens, UniProt O14842); test: A2 site radioligand binding with [3H]-AM-1638
T4 construct: full length recombinant human GPR40 (GPR40) cDNA; expressed in transfected cells; host or cells: HEK 293, stably transfected; crude cell surface membranes
Method: Crude cell surface membranes were prepared from human embryonic kidney 293 (HEK 293) cells stably transfected (for the wild type) or transiently transfected (for the mutants and corresponding wild type) with full length recombinant human GPR40 (GPR40) cDNA, using differential centrifugation methods.
A2 Site Binding. 10 µL of compound diluted in 100% DMSO and 90 µL of Assay Buffer (50 mM Tris-HCl, pH 7.5, 10 mM CaCl2, 10 mM MgCl2, 0.1% w/v Bacitracin, 2.5% w/v dextran charcoal-treated FBS) were added to a deep 96-well polypropylene assay plate (Beckman Coulter). Two hundred μl of [^3H]-AM-1638 (84 Ci/mmol, Quotient Bioresearch Radiochemicals, Ltd.; 0.5 nM final concentration) and 200 µL of GPR40 membranes (5 µg/well), both diluted in Assay Buffer, were added to the assay plate, followed by a 1 min shake and a 1 h incubation at room temperature (22 °C).
Assays were terminated by filtration through GF/C glass fiber filtermats (Perkin Elmer) presoaked in 50 mM Tris–HCl, pH 7.5, using a Mach III cell harvester (TomTec). Filtermats were washed two times with 5 mL of ice-cold 50 mM Tris–HCl, pH 7.5 buffer, dried 1 h in a convection oven at 60 °C and embedded with Meltilex A solid scintillant (Perkin Elmer). Radioactivity was determined as counts per min (cpm) using a Trilux Microbeta plate scintillation counter (Perkin Elmer).

T4 sequence (O14842 whole entry): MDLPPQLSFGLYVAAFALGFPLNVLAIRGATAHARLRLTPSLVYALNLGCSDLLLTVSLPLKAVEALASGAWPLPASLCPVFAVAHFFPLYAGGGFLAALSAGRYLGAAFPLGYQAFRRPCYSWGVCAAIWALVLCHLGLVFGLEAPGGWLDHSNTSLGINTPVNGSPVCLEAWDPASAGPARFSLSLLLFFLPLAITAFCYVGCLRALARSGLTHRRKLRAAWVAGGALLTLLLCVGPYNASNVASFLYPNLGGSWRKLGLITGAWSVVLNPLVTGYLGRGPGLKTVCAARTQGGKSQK
T1 sequence (O14842 whole entry): as above
Chain of Rat GPR40 (Q8K3T4 whole entry): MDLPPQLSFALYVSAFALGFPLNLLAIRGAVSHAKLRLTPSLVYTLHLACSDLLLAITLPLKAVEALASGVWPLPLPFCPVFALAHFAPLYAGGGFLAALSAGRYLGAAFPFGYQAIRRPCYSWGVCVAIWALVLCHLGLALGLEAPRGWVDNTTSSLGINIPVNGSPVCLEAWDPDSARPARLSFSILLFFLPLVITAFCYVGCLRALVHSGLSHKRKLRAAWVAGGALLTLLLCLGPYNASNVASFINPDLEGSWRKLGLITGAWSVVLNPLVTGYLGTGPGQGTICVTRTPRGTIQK
Chain of Mouse GPR40 (Q76JU9 whole entry): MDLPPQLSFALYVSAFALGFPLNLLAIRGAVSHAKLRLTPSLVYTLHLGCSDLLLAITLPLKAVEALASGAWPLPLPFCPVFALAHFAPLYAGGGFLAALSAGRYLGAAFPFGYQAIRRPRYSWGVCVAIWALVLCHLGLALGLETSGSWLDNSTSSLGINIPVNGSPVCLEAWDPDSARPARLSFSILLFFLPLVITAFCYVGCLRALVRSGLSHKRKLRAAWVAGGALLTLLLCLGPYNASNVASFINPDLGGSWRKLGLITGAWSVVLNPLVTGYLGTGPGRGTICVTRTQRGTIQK

| SMILES | EC50 (human GPR40; GPR40-Gαq signaling, stably transfected cells, no TAK-875) | cooperativity composite factor (Log αβ) (human GPR40; compound 1 with TAK-875, operational model, slope constrained to 1) | efficacy modulation cooperativity factor (β) (human GPR40; cooperativity between TAK-875 and compound 1) | average α-factor (human GPR40; cooperativity between TAK-875 and compound 1, averages from Figs. 1a and 8a) | Ca2+ mobilization (FLIPR) Top (human GPR40) | agonist type in Ca2+ mobilization assay (human GPR40) | EC50 (Rat GPR40) | Emax (Rat GPR40) | EC50 (Mouse GPR40) | Emax (Mouse GPR40) | EC50 (Human GPR120) | glucose excursion in OGTT (wild type C57BL/6 mice; various oral doses) | IC50 (human PPARdelta) | Ki (human GPR40 (A2 site); Supplementary Table 1, read-out: Human GPR40 Binding to A2 Ki) | Ki (human GPR40 (A2 site); competitive radioligand binding, membranes from stably transfected cells, Fig. 1a, read-out: Ki in [3H]-AM-1638 binding) | glucose in OGTT (wild type C57BL/6 mice; 30 and 60 mg kg-1) | effect on [3H]-AM-1638 binding (human GPR40 (A2 site); addition of unlabeled compound, Supplementary Fig. 1a) |
| --- | --- | --- | --- | --- | --- | --- | --- | --- | --- | --- | --- | --- | --- | --- | --- | --- | --- |
| COc1ccc(C(=O)N(CC(C)(C)C)c2cccc(C)n2)c(N2CCC(c3cc4ccc([C@@H](CC(=O)O)C5CC5)cc4o3)CC2)c1 [compound 1] | 72 nM and ~72 nM | 1.46 | 14 | 2.1 | 136.3% | full agonist | 2.1 nM | 163% | 1.6 nM | 146% | > 100000 nM | Dose dependent decreases in glucose excursion | > 10000 nM | 0.9 nM | 0.81 nM |  |  |
| Cc1cc(OCCCS(C)(=O)=O)cc(C)c1-c1cccc(COc2ccc3c(c2)OC[C@H]3CC(=O)O)c1 [TAK-875] |  |  |  |  | 81.67% | partial agonist | 36 nM |  | 8.6 nM |  | > 100000 nM |  | > 10000 nM |  |  | Decreases in glucose | enhanced |
